Laboratory results: patent US20200222418A1, “USE OF PHENOTHIAZINE DERIVATIVE IN THE TREATMENT OF INFECTION CAUSED BY BACTERIA CARRYING TYPE IV PILI” (priority 2017, published 2020)

Tests used:
[1] = tested on: Nm2C4.3 microcolonies on HBMEC, human bone marrow endothelial cell line; assay: Dispersion of meningococcal microcolonies on HBMEC (vascular colonisation index); format: cell-based, Neisseria meningitidis; conditions: 30 min, Trifluoperazine 10-40 μM, Gentamicin 150 μg/ml, Cefotaxim 20 μg/ml
Protocol: Human […] microvascular endothelial cells (HBMEC) were infected with Nm2C4.3 for 1 h 30, treated with Trifluoperazine (10-40 μM) for 30 minutes, before fixation and immunofluorescence analysis using anti-Nm2C4.3 antibody and Alexa Fluor 633 Phalloidin. (A) Representative fluorescence microscopy showing bacterial colony (white dots) formed at the surface of the endothelial cells. (B) Quantification of the bacterial colonization was performed using Image J software.
HBMEC, a human endothelial cell line isolated from […] capillaries (Schweitzer et al., 1997) were grown in Dulbecco's Modified Eagle Medium (DMEM) 4.5 g/L-Glutamax (ThermoFischer) 10% FBS. Cells were grown on Thermanox coverslips coated with gelatin 2% (BD Difco #214340) for 2 days to reach confluency. Cells were then infected with a suspension of Nm2C4.3 (˜10^7 CFU/ml) in DMEM/FBS during 30 minutes to allow bacterial adhesion. Cells were then washed three times with medium to remove non-adherent bacteria and infection was pursued for 1 h 30: adherent bacteria grew at the endothelial cell surface and formed micro-colonies. Trifluoperazine was then added to obtain final concentrations of 10, 20, 30 and 40 μM. After incubation for 30 minutes, cells were washed and fixed in 4% Paraformaldehyde for 10 min, washed three times with PBS, and permeabilized with 0.1% Triton X-100 in PBS for 10 min. Cells were blocked for 30 min with 3% BSA in PBS and were incubated for 2 h with the primary antibodies (Rabbit polyclonal anti-Nm2C4.3 strain, kindly provided by Dr X. Nassif, INEM, Paris). After three washes with PBS, cells were incubated for 1 h with […] anti-rabbit IgG (Jackson ImmunoResearch Laboratories), together with Alexa Fluor 633 Phalloidin (Thermofischer) and DAPI ([…], Sigma Aldrich) to stain Actin and nuclei, respectively. Labelled preparations were mounted in Glycergel media (DAKO) and image acquisitions were performed with a DM16000 microscope (Leica, X40). Quantification was done with ImageJ software (NIH). […]

[2] = tested on: meningococcal colonization of the human dermal vasculature; assay: In vivo meningococcal infection of mice engrafted with human skin
[3] = tested on: N. meningitidis 2C4.3 aggregates; format: cell-based, Neisseria meningitidis; conditions: for effect on dispersion of meningococcal aggregates: 0.5 to 80 μM, 30 min
Protocol: N. meningitidis 2C4.3 was grown in liquid culture at 10^7 CFU/ml for 2 h to form bacterial aggregates and were treated with increasing concentrations of Trifluoperazine (10 to 40 μM), Gentamicin (150 μg/ml) or cefotaxim (20 μg/ml) for 20 minutes and bacterial aggregates were immediately visualized using a phase-contrast microscope. […] (B) Quantification of the bacterial aggregation was performed using Image J software.
N. meningitidis 2C4.3 wild type strain and the isogenic derivative mutant PilT ([…]PiIT) were grown in liquid culture at 10^7 CFU/ml for 2 h to form bacterial aggregates and then treated with 50 μM Trifluoperazine. Time lapse phase-contrast video microscopy was performed to visualize the effect on bacterial aggregates over time. Images were taken at the indicated time points of the video.
N. meningitidis 2C4.3 was grown in liquid culture at 10^7 CFU/ml for 2 h to form bacterial aggregates and were treated with 30 μM Trifluoperazine for 30 minutes to induce bacterial dispersion or PBS as a control. The medium was replaced to remove the Trifluoperazine and the reformation of bacterial aggregates were visualized overtime using a phase-contrast microscope.
Bacteria were grown in suspension for 2 h then Phenothiazine derivatives were added at the indicated concentrations.
N. meninigitidis 2C4.3 strain was grown in suspension in wells of a 24 well plate, containing 1 ml of DMEM medium supplemented with 10% heat-inactivated fetal calf serum. After 2 h of growth, Trifluoperazine (or control vehicle) was added at various concentrations ranging from 10 to 40 μM for 20 min and the bacterial aggregates were visualized over time using a phase-contrast microscope.
N. meninigitidis 2C4.3 strain was grown in suspension in wells of a 24 well plate, containing 1 ml of DMEM medium supplemented with 10% heat-inactivated fetal calf serum. After 2 h of growth, various concentrations (0.5 to 80 μM) of phenothiazine-derivative compounds or control vehicle (PBS or DMSO) were added to the wells for 30 min and the bacterial aggregates were visualized using a phase-contrast microscope. Were tested phenothiazine-derivative compounds of: • the Piperazine group: Trifluoperazine (Sigma #T8516), Fluphenazine (Sigma #F4765), Prochlorperazine (Sigma #P9178) Perphenazine (Sigma #P6402); • the Piperidine group: Thioridazine (Sigma #T9025) and Mesoridazin (Sigma #M4068); • the Aliphatic group: Chlorpromazine (Sigma #C8138), Promazine (Sigma #P6656), Triflupromazine (Sigma #1686003) and levomepromazine (Sigma #L0500000).

## CO/N=C(\C(=O)N[C@@H]1C(=O)N2C(C(=O)O)=C(COC(C)=O)CS[C@H]12)c1csc(N)n1 [Cefotaxim]
[1]
  dispersion of compact meningococcal microcolonies established at the endothelial cell surface: poorly induced the dispersion
[2]
  increase of inflammatory response: 2 fold
[3]; aggregates pre-formed 2 h, 20 min, Trifluoperazine 10-40 μM, Gentamicin 150 μg/ml, Cefotaxim 20 μg/ml
  dispersion of bacterial aggregates formed in suspension: did not significantly induce the dispersion

## CN(C)CCCN1c2ccccc2Sc2ccc(Cl)cc21 [Chlorpromazine]
[3]
  effect on dispersion of meningococcal aggregates: no effects

## COc1ccc2c(c1)N(C[C@H](C)CN(C)C)c1ccccc1S2 [Levomepromazine]
[3]
  effect on dispersion of meningococcal aggregates: no effects

## CN(C)CCCN1c2ccccc2Sc2ccccc21 [Promazine]
[3]
  effect on dispersion of meningococcal aggregates: inhibited bacterial aggregation with better efficacy than Trifluoperazine

## CN(C)CCCN1c2ccccc2Sc2ccc(C(F)(F)F)cc21 [Triflupromazine]
[3]
  effect on dispersion of meningococcal aggregates: no effects
